Values of other authors in patent US8815282B1, “Commercial method for production of room temperature-liquid cetyl myristoleate” (priority 2005, dated 2014).

System: arthritis in mice
Conditions: pure CMO, Pharmacological Research 47 (2003) 43-47

In the case of `CCCC/C=C\CCCCCCCC(=O)OCCCCCCCCCCCCCCCC` [CMO, cetyl myristoleate], the “incidence and severity of arthritis” value is listed as “significant reduction in the incidence and severity of arthritis”.
